Experimental data as given in patent US20200239530A1, “COMPOUNDS AND METHODS OF MODULATING PROTEIN DEGRADATION” (Vividion Therapeutics, Inc., priority 2017, published 2020).

How the values were obtained:
Format in all cases: binding
[1] = target: T1, cysteine residue illustrated in Table 1A or Table 2A (Homo sapiens, UniProt Q5H9S7); experiment: Competitive cysteine profiling of cell lysate with desthiobiotin iodoacetamide probe (96-well sample prep); conditions: UniProt Q5H9S7; 100 uM
T1 construct: Cells were resuspended in cold PBS on ice and sonicated with a probe sonicator to achieve lysis; endogenous in cells
T1 sequence (Q5H9S7 1-520): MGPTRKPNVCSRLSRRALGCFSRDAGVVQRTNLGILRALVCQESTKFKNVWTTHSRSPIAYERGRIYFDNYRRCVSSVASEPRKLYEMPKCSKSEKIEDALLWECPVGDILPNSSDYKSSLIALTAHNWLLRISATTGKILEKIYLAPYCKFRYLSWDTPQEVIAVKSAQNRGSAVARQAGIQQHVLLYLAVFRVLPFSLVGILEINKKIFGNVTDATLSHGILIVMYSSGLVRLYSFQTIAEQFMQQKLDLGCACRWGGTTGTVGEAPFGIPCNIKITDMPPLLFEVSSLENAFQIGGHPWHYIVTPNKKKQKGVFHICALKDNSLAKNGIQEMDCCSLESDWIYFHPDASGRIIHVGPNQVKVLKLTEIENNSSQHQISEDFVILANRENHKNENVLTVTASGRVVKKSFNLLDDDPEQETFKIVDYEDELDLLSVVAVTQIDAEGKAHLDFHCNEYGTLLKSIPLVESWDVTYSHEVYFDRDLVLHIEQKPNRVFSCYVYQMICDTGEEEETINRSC
Procedure: (§1) In some embodiments, the solution sample (e.g., cell sample, cell lysate sample, or comprising isolated proteins) is incubated with a compound of Formula (I) for analysis of protein-probe interactions. In some instances, the solution sample (e.g., cell sample, cell lysate sample, or comprising isolated proteins) is further incubated in the presence of an additional compound probe prior to addition of the compound of Formula (I). […] In such instances, the solution sample is incubated with a probe and a ligand for competitive protein profiling analysis.
(§2) The following 96-well sample prep protocol was used for sample preparation.
(§3) Cells were resuspended in cold PBS on ice and sonicated with a probe sonicator to achieve lysis. 200 μL of lysate containing 5 mg/ml proteome was treated with 2 μL of 100× compound stock in a 2-mL deep-well plate. The treated lysate was subsequently incubate at 25° C. for 1 hr with shaking at 600 rpm. The treated lysate was further incubated with 2 μL of 10 mM desthiobiotin iodoacetamide probe at 25° C. for 1 hr with shaking at 600 rpm. Next, the lysate was further treat with 20 μL of solution of PBS containing 11 mM MgSO4 and 2.5% Turbonuclease stock and incubated at 25° C. for 20 minutes with shaking at 600 rpm. 1.7 mL ice-cold acetone was added to each well and incubated at −20° C. for 2 hr, followed by max speed (4200 rpm) spin for 45 min. Acetone was then decanted and the plates were blotted to remove acetone. The plates were then dried in open air for 20 minutes. After drying, the plates were then covered with foil seal and stored at −80° C. overnight.
(§4) The next day, samples were re-suspended in 90 μL of solution of 9M urea, 50 mM ammonium bicarbonate and 10 mM DTT by incubating at 65C for 20 min with shaking at 1500 rpm. Next, samples were cooled to 37° C. and then 10 μL of 500 mM iodoacetamide solution (92.48 mg/ml) was added. The samples were then incubated at 37° C. for 30 min with shaking at 600 rpm.
(§5) ZEBA desalting plates were equilibrated 4 times using 250 μL of 2M urea, 50 mM ammonium bicarbonate solution followed by centrifugation at 1500 rpm for 2 minutes. After equilibration was complete, samples were applied to ZEBA desalting plate and spin at 1500 rpm for 2 min on top of 1 mL 96-well deep-well collection plate to buffer exchange samples. 4 μL of solution containing 25 mM CaCl2 and 0.25 mg/mL trypsin was added to the plate and the plate was then incubated at 37° C. for 2 hrs with shaking at 600 rpm. 300 μL of solution containing 5% high-capacity streptavidin agarose slurry in 25 mM Tris-HCl pH 7.5, 150 mM NaCl, and 0.1% NP-40 then added. The plate was incubated at 25° C. for 2 hrs with shaking at 600 rpm. Samples were transferred to 25 μm filter plate and spin at 1000 rpm for 2 min. Samples were then washed 3 times with 0.75 mL of wash buffer (25 mM Tris-HCl pH 7.5, 150 mM NaCl, and 0.1% NP-40) followed by washing 3 times with 0.75 mL PBS, and then 4 times with 0.75 mL water. After the washing step, samples were eluted into polypropylene 96-well plate by addition of 250 µL of 50% MeCN/water, 0.1% formic acid and allowed to gravity drip for 10 min, followed by centrifugation at 1000 rpm for 2 min. Speedvac was used to dry the plates at about 45° C. for […]. Then the plates were covered with foil seal and stored at −20° C.
(§6) Samples were resuspended by addition of 20 μl of 12.5% ACN, 0.1% formic acid solution, covered with foil seal, and incubated at 42° C. for 10 minutes with shaking at 600 rpm. Then add 30 μL of 0.1% formic acid solution was added and the plate was covered and incubated at 42° C. for 10 minutes with shaking at 600 rpm. Seal plate was then sealed with a 96-well silicon mat for analysis.

[2] = target: T2, cysteine residue illustrated in Table 1A or Table 2A (Homo sapiens, UniProt Q7Z4G1); experiment: as above; conditions: UniProt Q7Z4G1; 100 uM
T2 construct: Cells were resuspended in cold PBS on ice and sonicated with a probe sonicator to achieve lysis; endogenous in cells
Procedure: as §1, §2, §3, §4, §5, §6

[3] = target: T3, cysteine residue illustrated in Table 1A or Table 2A (Homo sapiens, UniProt A6NGE4); experiment: as above; conditions: UniProt A6NGE4; 500 uM
T3 construct: Cells were resuspended in cold PBS on ice and sonicated with a probe sonicator to achieve lysis; endogenous in cells
Procedure: as §1, §2, §3, §4, §5, §6

Q9BX70 = target: T4, Q9BX70 (Homo sapiens, UniProt Q9BX70); experiment: Competitive cysteine profiling, probe competition (Table 2B)
T4 construct: 200 μL of lysate containing 5 mg/ml proteome was treated with 2 μL of 100× compound stock; endogenous in cells
Excerpt: as §2

Q7Z569 = target: T5, Q7Z569 (Homo sapiens, UniProt Q7Z569); experiment: as above
T5 construct: 200 μL of lysate containing 5 mg/ml proteome was treated with 2 μL of 100× compound stock; endogenous in cells
Excerpt: as §2

T3 sequence (A6NGE4 whole entry): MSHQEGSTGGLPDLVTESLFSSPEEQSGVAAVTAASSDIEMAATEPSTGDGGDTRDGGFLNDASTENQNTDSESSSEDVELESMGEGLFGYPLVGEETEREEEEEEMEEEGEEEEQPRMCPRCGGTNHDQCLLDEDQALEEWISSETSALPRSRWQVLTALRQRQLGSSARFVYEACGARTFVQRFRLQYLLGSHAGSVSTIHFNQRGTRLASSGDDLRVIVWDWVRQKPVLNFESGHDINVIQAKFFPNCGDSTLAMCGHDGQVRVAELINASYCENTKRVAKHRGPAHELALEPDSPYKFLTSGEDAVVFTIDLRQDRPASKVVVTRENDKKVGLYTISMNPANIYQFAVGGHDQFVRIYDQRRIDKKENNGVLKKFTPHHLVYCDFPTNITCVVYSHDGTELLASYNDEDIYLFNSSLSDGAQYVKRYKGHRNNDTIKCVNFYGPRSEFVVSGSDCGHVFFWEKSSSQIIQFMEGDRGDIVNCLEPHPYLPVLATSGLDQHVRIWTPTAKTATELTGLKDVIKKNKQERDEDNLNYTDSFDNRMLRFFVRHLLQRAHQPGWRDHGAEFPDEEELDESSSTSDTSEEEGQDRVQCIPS
T2 sequence (Q7Z4G1 whole entry): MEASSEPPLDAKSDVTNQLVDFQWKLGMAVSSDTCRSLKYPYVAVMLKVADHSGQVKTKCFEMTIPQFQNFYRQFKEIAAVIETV
T4 sequence (Q9BX70 whole entry): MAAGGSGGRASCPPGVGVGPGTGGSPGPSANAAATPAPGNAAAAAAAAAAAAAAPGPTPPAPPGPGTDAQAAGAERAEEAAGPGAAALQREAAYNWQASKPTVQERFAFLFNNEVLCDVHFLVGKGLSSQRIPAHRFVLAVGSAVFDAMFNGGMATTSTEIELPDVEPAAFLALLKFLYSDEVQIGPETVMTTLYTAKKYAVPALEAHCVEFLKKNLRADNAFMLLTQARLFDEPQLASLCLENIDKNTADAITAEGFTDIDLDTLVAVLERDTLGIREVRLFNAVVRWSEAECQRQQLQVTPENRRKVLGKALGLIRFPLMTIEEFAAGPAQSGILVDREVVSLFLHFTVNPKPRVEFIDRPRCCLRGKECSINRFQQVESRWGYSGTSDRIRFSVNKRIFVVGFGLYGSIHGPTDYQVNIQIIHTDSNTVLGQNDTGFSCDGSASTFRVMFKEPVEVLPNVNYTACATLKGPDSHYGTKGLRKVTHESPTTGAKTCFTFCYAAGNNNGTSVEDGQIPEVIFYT
T5 sequence (Q7Z569 whole entry): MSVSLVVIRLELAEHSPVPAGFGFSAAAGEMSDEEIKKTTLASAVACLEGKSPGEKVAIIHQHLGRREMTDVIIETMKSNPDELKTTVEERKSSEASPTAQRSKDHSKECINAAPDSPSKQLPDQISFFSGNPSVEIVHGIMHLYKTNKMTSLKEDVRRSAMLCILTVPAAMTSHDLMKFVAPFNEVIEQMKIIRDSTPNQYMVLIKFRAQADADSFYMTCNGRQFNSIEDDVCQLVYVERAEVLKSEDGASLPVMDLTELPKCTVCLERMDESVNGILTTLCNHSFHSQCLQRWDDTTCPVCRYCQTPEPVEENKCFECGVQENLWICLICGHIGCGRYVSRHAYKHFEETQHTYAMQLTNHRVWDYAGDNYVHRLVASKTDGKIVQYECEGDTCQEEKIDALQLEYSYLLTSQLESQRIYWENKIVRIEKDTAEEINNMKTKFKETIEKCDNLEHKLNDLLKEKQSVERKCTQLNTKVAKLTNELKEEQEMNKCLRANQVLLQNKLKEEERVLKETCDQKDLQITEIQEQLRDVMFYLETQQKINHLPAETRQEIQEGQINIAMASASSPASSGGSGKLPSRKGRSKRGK

COc1ccc2c(c1)CCCN2C(=O)CCl [KB02]
KB02_100 uM_percent_inhibition [1]: 69%
KB02_100 uM_percent_inhibition [2]: 22%
KB02_500 uM_percent_inhibition [3]: 55%
inhibition at 100 µM (Q9BX70; 100 uM, read-out: KB02_100 uM_percent_inhibition): 4%

C=CC(=O)N(c1ccccc1)c1ccc(Br)cc1 [KB05]
KB05_100 uM_percent_inhibition [1]: 54%
KB05_100 uM_percent_inhibition [2]: 33%
KB05_500 uM_percent_inhibition [3]: 63%
inhibition at 100 µM (Q7Z569; read-out: KB05_100 uM_percent_inhibition): 33%

O=C(CCl)Nc1cc(C(F)(F)F)cc(C(F)(F)F)c1 [KBO3]
KB03_100 uM_percent_inhibition [1]: 39%
KB03_100 uM_percent_inhibition [2]: 33%
KB03_500 uM_percent_inhibition [3]: 41%
KB03_500 uM_percent_inhibition (Q9BX70; 500 uM): 40%
KB03_100 uM_percent_inhibition (Q7Z569; 100 uM): 10%
